{"source": "PubChem BioAssay (NCI)", "test_in_all_cases": "NCI-60 cell line screen, 48 h", "key": {"BT-549 breast": {"tested_on": "BT-549 breast"}, "TK-10 renal": {"tested_on": "TK-10 renal"}, "SR leukemia": {"tested_on": "SR leukemia"}, "NCI/ADR-RES ovarian": {"tested_on": "NCI/ADR-RES ovarian"}, "M14 melanoma": {"tested_on": "M14 melanoma"}, "SK-MEL-2 melanoma": {"tested_on": "SK-MEL-2 melanoma"}, "K-562 leukemia": {"tested_on": "K-562 leukemia"}, "OVCAR-5 ovarian": {"tested_on": "OVCAR-5 ovarian"}, "SF-268 CNS": {"tested_on": "SF-268 CNS"}, "SW-620 colon": {"tested_on": "SW-620 colon"}, "A498 renal": {"tested_on": "A498 renal"}, "T-47D breast": {"tested_on": "T-47D breast"}, "RXF 393 renal": {"tested_on": "RXF 393 renal"}, "A549 NSCLC": {"tested_on": "A549 NSCLC"}, "SK-MEL-5 melanoma": {"tested_on": "SK-MEL-5 melanoma"}, "SF-539 CNS": {"tested_on": "SF-539 CNS"}, "OVCAR-8 ovarian": {"tested_on": "OVCAR-8 ovarian"}, "MALME-3M melanoma": {"tested_on": "MALME-3M melanoma"}, "SNB-75 CNS": {"tested_on": "SNB-75 CNS"}, "OVCAR-3 ovarian": {"tested_on": "OVCAR-3 ovarian"}, "HT29 colon": {"tested_on": "HT29 colon"}, "OVCAR-4 ovarian": {"tested_on": "OVCAR-4 ovarian"}, "SNB-19 CNS": {"tested_on": "SNB-19 CNS"}, "HOP-62 NSCLC": {"tested_on": "HOP-62 NSCLC"}, "UO-31 renal": {"tested_on": "UO-31 renal"}, "RPMI-8226 leukemia": {"tested_on": "RPMI-8226 leukemia"}, "SK-MEL-28 melanoma": {"tested_on": "SK-MEL-28 melanoma"}, "786-0 renal": {"tested_on": "786-0 renal"}, "MOLT-4 leukemia": {"tested_on": "MOLT-4 leukemia"}}, "note": "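Interpolation was linear, between the two tested concentrations surrounding the appropriate level; five concentrations were tested over 48 hours in 96-well plates. The concentration for 50% growth inhibition is given as GI50. TGI is the concentration that stops growth completely.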"}
{"smiles": "O=C(Nc1ccccc1C(=O)N/N=C(\\c1ccccc1)c1ccccn1)c1ccccc1", "values": [{"measurement": "GI50", "setting": "BT-549 breast", "value": 2180, "unit": "nM"}, {"measurement": "TGI", "setting": "BT-549 breast", "value": "> 100000", "unit": "nM"}, {"measurement": "GI50", "setting": "TK-10 renal", "value": 584, "unit": "nM"}, {"measurement": "TGI", "setting": "TK-10 renal", "value": "> 100000", "unit": "nM"}, {"measurement": "GI50", "setting": "SR leukemia", "value": 507, "unit": "nM"}, {"measurement": "TGI", "setting": "SR leukemia", "value": "> 100000", "unit": "nM"}, {"measurement": "GI50", "setting": "NCI/ADR-RES ovarian", "value": 276, "unit": "nM"}, {"measurement": "TGI", "setting": "NCI/ADR-RES ovarian", "value": "> 100000", "unit": "nM"}, {"measurement": "GI50", "setting": "M14 melanoma", "value": 457, "unit": "nM"}, {"measurement": "TGI", "setting": "M14 melanoma", "value": 4630, "unit": "nM"}, {"measurement": "GI50", "setting": "SK-MEL-2 melanoma", "value": 4850, "unit": "nM"}, {"measurement": "TGI", "setting": "SK-MEL-2 melanoma", "value": "> 100000", "unit": "nM"}, {"measurement": "GI50", "setting": "K-562 leukemia", "value": 1450, "unit": "nM"}, {"measurement": "TGI", "setting": "K-562 leukemia", "value": "> 100000", "unit": "nM"}, {"measurement": "GI50", "setting": "OVCAR-5 ovarian", "value": 933, "unit": "nM"}, {"measurement": "TGI", "setting": "OVCAR-5 ovarian", "value": "> 100000", "unit": "nM"}, {"measurement": "GI50", "setting": "SF-268 CNS", "value": 609, "unit": "nM"}, {"measurement": "TGI", "setting": "SF-268 CNS", "value": "> 100000", "unit": "nM"}, {"measurement": "GI50", "setting": "SW-620 colon", "value": 723, "unit": "nM"}, {"measurement": "TGI", "setting": "SW-620 colon", "value": "> 100000", "unit": "nM"}, {"measurement": "GI50", "setting": "A498 renal", "value": 2950, "unit": "nM"}, {"measurement": "TGI", "setting": "A498 renal", "value": "> 100000", "unit": "nM"}, {"measurement": "GI50", "setting": "T-47D breast", "value": 666, "unit": "nM"}, {"measurement": "TGI", "setting": "T-47D breast", "value": "> 100000", "unit": "nM"}, {"measurement": "GI50", "setting": "RXF 393 renal", "value": 1930, "unit": "nM"}, {"measurement": "TGI", "setting": "RXF 393 renal", "value": "> 82400", "unit": "nM"}, {"measurement": "GI50", "setting": "A549 NSCLC", "value": 987, "unit": "nM"}, {"measurement": "TGI", "setting": "A549 NSCLC", "value": "> 100000", "unit": "nM"}, {"measurement": "GI50", "setting": "SK-MEL-5 melanoma", "value": 560, "unit": "nM"}, {"measurement": "TGI", "setting": "SK-MEL-5 melanoma", "value": 2460, "unit": "nM"}, {"measurement": "GI50", "setting": "SF-539 CNS", "value": 621, "unit": "nM"}, {"measurement": "TGI", "setting": "SF-539 CNS", "value": "> 100000", "unit": "nM"}, {"measurement": "GI50", "setting": "OVCAR-8 ovarian", "value": 583, "unit": "nM"}, {"measurement": "TGI", "setting": "OVCAR-8 ovarian", "value": "> 100000", "unit": "nM"}, {"measurement": "GI50", "setting": "MALME-3M melanoma", "value": 1750, "unit": "nM"}, {"measurement": "TGI", "setting": "MALME-3M melanoma", "value": "> 100000", "unit": "nM"}, {"measurement": "GI50", "setting": "SNB-75 CNS", "value": 1070, "unit": "nM"}, {"measurement": "TGI", "setting": "SNB-75 CNS", "value": "> 100000", "unit": "nM"}, {"measurement": "GI50", "setting": "OVCAR-3 ovarian", "value": 346, "unit": "nM"}, {"measurement": "TGI", "setting": "OVCAR-3 ovarian", "value": "> 100000", "unit": "nM"}, {"measurement": "GI50", "setting": "HT29 colon", "value": 797, "unit": "nM"}, {"measurement": "TGI", "setting": "HT29 colon", "value": "> 100000", "unit": "nM"}, {"measurement": "GI50", "setting": "OVCAR-4 ovarian", "value": 330, "unit": "nM"}, {"measurement": "TGI", "setting": "OVCAR-4 ovarian", "value": "> 100000", "unit": "nM"}, {"measurement": "GI50", "setting": "SNB-19 CNS", "value": 912, "unit": "nM"}, {"measurement": "TGI", "setting": "SNB-19 CNS", "value": "> 100000", "unit": "nM"}, {"measurement": "GI50", "setting": "HOP-62 NSCLC", "value": 396, "unit": "nM"}, {"measurement": "TGI", "setting": "HOP-62 NSCLC", "value": "> 100000", "unit": "nM"}, {"measurement": "GI50", "setting": "UO-31 renal", "value": 428, "unit": "nM"}, {"measurement": "TGI", "setting": "UO-31 renal", "value": "> 25500", "unit": "nM"}, {"measurement": "GI50", "setting": "RPMI-8226 leukemia", "value": 823, "unit": "nM"}, {"measurement": "TGI", "setting": "RPMI-8226 leukemia", "value": "> 100000", "unit": "nM"}, {"measurement": "GI50", "setting": "SK-MEL-28 melanoma", "value": 1230, "unit": "nM"}, {"measurement": "TGI", "setting": "SK-MEL-28 melanoma", "value": "> 100000", "unit": "nM"}, {"measurement": "GI50", "setting": "786-0 renal", "value": 399, "unit": "nM"}, {"measurement": "TGI", "setting": "786-0 renal", "value": "> 100000", "unit": "nM"}, {"measurement": "GI50", "setting": "MOLT-4 leukemia", "value": 460, "unit": "nM"}, {"measurement": "TGI", "setting": "MOLT-4 leukemia", "value": "> 100000", "unit": "nM"}]}
